Results taken from PubChem BioAssay AID2060513 (Molecular Pharmacology Branch, DTP, NCI, 2025).
Values belong to the molecule of their own block, whether it stands above or below them.

System: 299254-011-R-J1-PDC complex spheroids viability
Experiment: Anticancer human tumor 299254-011-R-J1-PDC patient-derived melanoma cell line growth inhibition [GQUAD]
Settings: for IC50: curve of first compound; for viability, T/C: stronger effect = lower value
How it was run: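 Viability of tumor cells grown as complex spheroids with endothelial and stromal cells, exposed to drug combinations. Top concentration at or near clinical Cmax (else 10 microM), diluted in half-log increments.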

[1] = second compound 0.0316 µM, first compound 0.000999 µM
[2] = second compound 0.0316 µM, first compound 0.00316 µM
[3] = second compound 0.0316 µM, first compound 0.00999 µM
[4] = second compound 0.0316 µM, first compound 0.0316 µM
[5] = second compound 0.0316 µM, first compound 0.0999 µM
[6] = second compound 0.0316 µM, first compound 0.316 µM
[7] = second compound 0.1 µM, first compound 0.000999 µM
[8] = second compound 0.1 µM, first compound 0.00316 µM
[9] = second compound 0.1 µM, first compound 0.00999 µM
[10] = second compound 0.1 µM, first compound 0.0316 µM
[11] = second compound 0.1 µM, first compound 0.0999 µM
[12] = second compound 0.1 µM, first compound 0.316 µM
[13] = second compound 0.316 µM, first compound 0.000999 µM
[14] = second compound 0.316 µM, first compound 0.00316 µM
[15] = second compound 0.316 µM, first compound 0.00999 µM
[16] = second compound 0.316 µM, first compound 0.0316 µM
[17] = second compound 0.316 µM, first compound 0.0999 µM
[18] = second compound 0.316 µM, first compound 0.316 µM
[19] = second compound 1 µM, first compound 0.000999 µM
[20] = second compound 1 µM, first compound 0.00316 µM
[21] = second compound 1 µM, first compound 0.00999 µM
[22] = second compound 1 µM, first compound 0.0316 µM
[23] = second compound 1 µM, first compound 0.0999 µM
[24] = second compound 1 µM, first compound 0.316 µM
[25] = second compound 3.16 µM, first compound 0.000999 µM
[26] = second compound 3.16 µM, first compound 0.00316 µM
[27] = second compound 3.16 µM, first compound 0.00999 µM
[28] = second compound 3.16 µM, first compound 0.0316 µM
[29] = second compound 3.16 µM, first compound 0.0999 µM
[30] = second compound 3.16 µM, first compound 0.316 µM
[31] = second compound 10 µM, first compound 0.000999 µM
[32] = second compound 10 µM, first compound 0.00316 µM
[33] = second compound 10 µM, first compound 0.00999 µM
[34] = second compound 10 µM, first compound 0.0316 µM
[35] = second compound 10 µM, first compound 0.0999 µM
[36] = second compound 10 µM, first compound 0.316 µM
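Also: spheroids exposed to the agents for seven days before readout.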
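For viability, T/C in this document: percent viability relative to DMSO vehicle control wells = 100%.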

IC50 (second compound 0.0316 µM): 139 nM | IC50 (second compound 0.1 µM): 172 nM | IC50 (second compound 0.316 µM): 101 nM | IC50 (second compound 1 µM): 48.4 nM | IC50 (second compound 3.16 µM): 45.5 nM | IC50 (second compound 10 µM): < 0.999 nM
Structure (SMILES): Cc1[nH]c2ccccc2c1CCNCc1ccc(/C=C/C(=O)NO)cc1 + Cc1cnc(CNC(=O)c2c(=O)c3ccc(N4CCCN(C)CC4)nc3n3c2sc2ccccc23)cn1
viability, T/C [1]: 92.3% | viability, T/C [2]: 84.4% | viability, T/C [3]: 94.6% | viability, T/C [4]: 80.3% | viability, T/C [5]: 65.2% | viability, T/C [6]: 14.4% | viability, T/C [7]: 92.7% | viability, T/C [8]: 106% | viability, T/C [9]: 97.1% | viability, T/C [10]: 80.7% | viability, T/C [11]: 87.6% | viability, T/C [12]: 10.7% | viability, T/C [13]: 107% | viability, T/C [14]: 92.4% | viability, T/C [15]: 97.3% | viability, T/C [16]: 91.3% | viability, T/C [17]: 50.4% | viability, T/C [18]: 10.3% | viability, T/C [19]: 86.5% | viability, T/C [20]: 103% | viability, T/C [21]: 79.7% | viability, T/C [22]: 63.4% | viability, T/C [23]: 28.6% | viability, T/C [24]: 4.65% | viability, T/C [25]: 82.8% | viability, T/C [26]: 77.7% | viability, T/C [27]: 68.4% | viability, T/C [28]: 63.5% | viability, T/C [29]: 28% | viability, T/C [30]: 0.2% | viability, T/C [31]: 26.3% | viability, T/C [32]: 8.63% | viability, T/C [33]: 0.47% | viability, T/C [34]: 0.44% | viability, T/C [35]: 0.35% | viability, T/C [36]: 0.26%

Structure (SMILES): CCc1c2c(nc3ccc(O)cc13)-c1cc3c(c(=O)n1C2)COC(=O)[C@]3(O)CC + CN(C)c1ccc(Nc2c3ccc(NC(=O)CCN4CCCC4)cc3nc3cc(NC(=O)CCN4CCCC4)ccc23)cc1
IC50 (second compound 0.0316 µM): > 316 nM | IC50 (second compound 0.1 µM): > 316 nM | IC50 (second compound 0.316 µM): > 316 nM | IC50 (second compound 1 µM): > 316 nM | IC50 (second compound 3.16 µM): > 316 nM | IC50 (second compound 10 µM): > 316 nM | viability, T/C [1]: 89.2% | viability, T/C [2]: 110% | viability, T/C [3]: 89.4% | viability, T/C [4]: 94.9% | viability, T/C [5]: 90.8% | viability, T/C [6]: 98% | viability, T/C [7]: 112% | viability, T/C [8]: 98.5% | viability, T/C [9]: 86.2% | viability, T/C [10]: 80% | viability, T/C [11]: 85.1% | viability, T/C [12]: 72% | viability, T/C [13]: 113% | viability, T/C [14]: 113% | viability, T/C [15]: 71.4% | viability, T/C [16]: 89.1% | viability, T/C [17]: 91.5% | viability, T/C [18]: 78% | viability, T/C [19]: 105% | viability, T/C [20]: 115% | viability, T/C [21]: 91.6% | viability, T/C [22]: 86.5% | viability, T/C [23]: 103% | viability, T/C [24]: 86.4% | viability, T/C [25]: 117% | viability, T/C [26]: 112% | viability, T/C [27]: 76.1% | viability, T/C [28]: 85% | viability, T/C [29]: 84.5% | viability, T/C [30]: 94.5% | viability, T/C [31]: 103% | viability, T/C [32]: 129% | viability, T/C [33]: 92% | viability, T/C [34]: 83.7% | viability, T/C [35]: 84.8% | viability, T/C [36]: 100%

Structure (SMILES): Cc1[nH]c2ccccc2c1CCNCc1ccc(/C=C/C(=O)NO)cc1 + CN(C)c1ccc(Nc2c3ccc(NC(=O)CCN4CCCC4)cc3nc3cc(NC(=O)CCN4CCCC4)ccc23)cc1
IC50 (second compound 0.0316 µM): 161 nM | IC50 (second compound 0.1 µM): 138 nM | IC50 (second compound 0.316 µM): 171 nM | IC50 (second compound 1 µM): 188 nM | IC50 (second compound 3.16 µM): 151 nM | IC50 (second compound 10 µM): 134 nM | viability, T/C [1]: 96.8% | viability, T/C [2]: 81.8% | viability, T/C [3]: 89.2% | viability, T/C [4]: 82.9% | viability, T/C [5]: 74.8% | viability, T/C [6]: 16.3% | viability, T/C [7]: 86% | viability, T/C [8]: 102% | viability, T/C [9]: 86.8% | viability, T/C [10]: 90.3% | viability, T/C [11]: 63.7% | viability, T/C [12]: 15% | viability, T/C [13]: 95.3% | viability, T/C [14]: 88.5% | viability, T/C [15]: 87% | viability, T/C [16]: 97.3% | viability, T/C [17]: 77% | viability, T/C [18]: 19.3% | viability, T/C [19]: 101% | viability, T/C [20]: 110% | viability, T/C [21]: 73.4% | viability, T/C [22]: 92.4% | viability, T/C [23]: 87.8% | viability, T/C [24]: 18.7% | viability, T/C [25]: 111% | viability, T/C [26]: 110% | viability, T/C [27]: 86.6% | viability, T/C [28]: 107% | viability, T/C [29]: 68.9% | viability, T/C [30]: 16.2% | viability, T/C [31]: 103% | viability, T/C [32]: 121% | viability, T/C [33]: 98.8% | viability, T/C [34]: 95.7% | viability, T/C [35]: 61.7% | viability, T/C [36]: 14.7%
